In patent US10266549B2, “ULK1 inhibitors and methods using same” (SALK INSTITUTE FOR BIOLOGICAL STUDIES, priority 2014, dated 2019):

Biological target: ULK1 (Homo sapiens (Human), UniProt O75385)
Assay: ULK1 inhibition assay (Table 1)
Assay type: biochemical
Conditions: * = tested as a mixture of regioisomers

Chain of ULK1 (O75385 whole entry, species assumed): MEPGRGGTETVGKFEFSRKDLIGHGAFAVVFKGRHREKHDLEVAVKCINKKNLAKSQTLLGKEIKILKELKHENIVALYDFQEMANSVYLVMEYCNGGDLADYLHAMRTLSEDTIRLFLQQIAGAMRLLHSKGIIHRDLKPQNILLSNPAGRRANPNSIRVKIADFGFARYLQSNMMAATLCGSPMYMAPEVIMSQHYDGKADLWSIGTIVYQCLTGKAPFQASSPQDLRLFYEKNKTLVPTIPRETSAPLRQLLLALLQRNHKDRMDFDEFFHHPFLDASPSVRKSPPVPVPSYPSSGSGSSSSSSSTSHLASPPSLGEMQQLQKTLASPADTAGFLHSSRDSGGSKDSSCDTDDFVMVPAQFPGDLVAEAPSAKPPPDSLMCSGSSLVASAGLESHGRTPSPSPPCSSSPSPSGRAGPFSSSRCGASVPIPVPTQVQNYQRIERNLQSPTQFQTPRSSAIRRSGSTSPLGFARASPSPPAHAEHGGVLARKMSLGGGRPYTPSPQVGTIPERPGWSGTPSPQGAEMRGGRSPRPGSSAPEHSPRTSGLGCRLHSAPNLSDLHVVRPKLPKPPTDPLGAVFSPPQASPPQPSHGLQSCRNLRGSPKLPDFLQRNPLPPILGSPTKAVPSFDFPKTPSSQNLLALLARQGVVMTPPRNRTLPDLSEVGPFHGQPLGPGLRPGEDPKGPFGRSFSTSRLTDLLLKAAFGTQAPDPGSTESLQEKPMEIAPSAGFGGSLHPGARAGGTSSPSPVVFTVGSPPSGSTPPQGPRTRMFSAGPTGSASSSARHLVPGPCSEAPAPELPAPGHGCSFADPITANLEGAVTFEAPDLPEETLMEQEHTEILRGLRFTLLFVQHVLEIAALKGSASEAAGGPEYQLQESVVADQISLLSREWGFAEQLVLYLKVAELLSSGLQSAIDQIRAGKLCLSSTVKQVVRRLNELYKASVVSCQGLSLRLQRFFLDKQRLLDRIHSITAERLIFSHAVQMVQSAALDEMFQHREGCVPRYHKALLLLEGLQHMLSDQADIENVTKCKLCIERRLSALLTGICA

| Structure (SMILES) | IC50 |
| --- | --- |
| COc1cc(N2CCOCC2)ccc1Nc1ncc(C(F)(F)F)c(Nc2ccc3c(c2)CCC(=O)N3)n1 [123b, 6-((2-((2-methoxy-4-morpholinophenyl)amino)-5-(trifluoromethyl)pyrimidin-4-yl)amino)-3,4-dihydroquinolin-2(1H)-one] | < 200 nM |
| FC(F)(F)c1cnc(Nc2ccc3c(c2)OCO3)nc1Nc1ccc2c(c1)OCO2 [124c, N^2,N^4-bis(benzo[d][1,3]dioxol-5-yl)-5-(trifluoromethyl)pyrimidine-2,4-diamine] | < 200 nM |
| O=C1CCc2cc(Nc3ncc(C(F)(F)F)c(Nc4cccc5ccccc45)n3)ccc2N1 [126a, 6-((4-(naphthalen-1-ylamino)-5-(trifluoromethyl)pyrimidin-2-yl)amino)-3,4-dihydroquinolin-2(1H)-one] | 200 to 2000 nM |
| FC(F)(F)c1cnc(Nc2cccc3ccccc23)nc1Nc1cccc2ccccc12 [126b, N^2,N^4-di(naphthalen-1-yl)-5-(trifluoromethyl) pyrimidine-2,4-diamine] | 200 to 2000 nM |
| O=C1CCc2cc(Nc3ncc(C(F)(F)F)c(NC4Cc5ccccc5C4)n3)ccc2N1 [130a, 6-((4-((2,3-dihydro-1H-inden-2-yl)amino)-5-(trifluoromethyl)pyrimidin-2-yl)amino)-3,4-dihydroquinolin-2(1H)-one] | < 200 nM |
| O=C1CCc2cc(Nc3nc(NC4Cc5ccccc5C4)ncc3C(F)(F)F)ccc2N1 [130b, 6-((2-((2,3-dihydro-1H-inden-2-yl)amino)-5-(trifluoromethyl)pyrimidin-4-yl)amino)-3,4-dihydroquinolin-2(1H)-one] | > 2000 nM |
| O=C1CCc2cc(Nc3ncc(C(F)(F)F)c(NC4CC4)n3)ccc2N1 [131a, 6-((4-(cyclopropylamino)-5-(trifluoromethyl)pyrimidin-2-yl)amino)-3,4-dihydroquinolin-2(1H)-one] | < 200 nM |
| O=C1CCc2cc(Nc3nc(NC4CC4)ncc3C(F)(F)F)ccc2N1 [131b, 6-((2-(cyclopropylamino)-5-(trifluoromethyl)pyrimidin-4-yl)amino)-3,4-dihydroquinolin-2(1H)-one] | < 200 nM |
| Fc1c(Nc2ncc(C(F)(F)F)c(Nc3ccc4c(c3)OCO4)n2)cccc1C(F)(F)F [141a, N^4-(benzo[d][1,3]dioxol-5-yl)-N^2-(2-fluoro-3-(trifluoromethyl)phenyl)-5-(trifluoromethyl)pyrimidine-2,4-diamine] | > 2000 nM |
| Fc1c(Nc2nc(Nc3ccc4c(c3)OCO4)ncc2C(F)(F)F)cccc1C(F)(F)F [141b, N^2-(benzo[d][1,3]dioxol-5-yl)-N^4-(2-fluoro-3-(trifluoromethyl)phenyl)-5-(trifluoromethyl)pyrimidine-2,4-diamine] | < 200 nM |
| COc1cccc(Nc2nc(Nc3ccc4c(c3)CCC(=O)N4)ncc2Cl)c1 [143a, 6-((5-chloro-4-((3-methoxyphenyl)amino)pyrimidin-2-yl)amino)-3,4-dihydroquinolin-2(1H)-one] | < 200 nM |
| COc1cccc(Nc2ncc(Cl)c(Nc3cccc(OC)c3)n2)c1 [143b, 5-chloro-N^2,N^4-bis(3-methoxyphenyl) pyrimidine-2,4-diamine] | < 200 nM |
| O=C1CCc2cc(Nc3ncc(C(F)(F)F)c(NC4CCC4)n3)ccc2N1 [150a, 6-((4-(cyclobutylamino)-5-(trifluoromethyl)pyrimidin-2-yl)amino)-3,4-dihydroquinolin-2(1H)-one] | < 200 nM |
| O=C1CCc2cc(Nc3nc(NC4CCC4)ncc3C(F)(F)F)ccc2N1 [150b, 6-((2-(cyclobutylamino)-5-(trifluoromethyl)pyrimidin-4-yl)amino)-3,4-dihydroquinolin-2(1H)-one] | < 200 nM |
| COCCNc1nc(Nc2ccc3c(c2)CCC(=O)N3)ncc1C(F)(F)F [151a, 6-((4-((2-methoxyethyl)amino)-5-(trifluoromethyl)pyrimidin-2-yl)amino)-3,4-dihydroquinolin-2(1H)-one] | < 200 nM |
| COCCNc1ncc(C(F)(F)F)c(Nc2ccc3c(c2)CCC(=O)N3)n1 [151b, 6-((2-((2-methoxyethyl)amino)-5-(trifluoromethyl)pyrimidin-4-yl)amino)-3,4-dihydroquinolin-2(1H)-one] | < 200 nM |
